Laboratory results taken from ChEMBL document CHEMBL1275582, “Role of the Ser-287-Asn replacement in the hydrolysis spectrum extension of AmpC beta-lactamases in Escherichia coli” (2009).
Values after ≈ are worked out from the molar mass of the structure shown.

tested on: Escherichia coli; experiment: Antibacterial activity against Escherichia coli TOP10 expressing AmpC-A S287N mutant protein by agar dilution method; type: functional

Compared with `CO/N=C(\C(=O)N[C@@H]1C(=O)N2C(C(=O)O)=C(COC(C)=O)CS[C@H]12)c1csc(N)n1` [CEFOTAXIME], `CC(C)(O/N=C(\C(=O)N[C@@H]1C(=O)N2C(C(=O)[O-])=C(C[n+]3ccccc3)CS[C@H]12)c1csc(N)n1)C(=O)O` [CEFTAZIDIME] is 32-fold higher in MIC: 16 µg/mL (≈ 35.1 µM) for the first, 512 µg/mL (≈ 937 µM) for the second.

Compared with `CO[C@@]1(NC(=O)Cc2cccs2)C(=O)N2C(C(=O)O)=C(COC(N)=O)CS[C@@H]21` [CEFOXITIN], `C[C@@H](O)[C@H]1C(=O)N2C(C(=O)O)=C(SCCNC=N)C[C@H]12` [IMIPENEM ANHYDROUS] is 530-fold lower in MIC: 32 µg/mL (≈ 74.9 µM) for the first, 0.06 µg/mL (≈ 0.2 µM) for the second.

tested on: Escherichia coli; experiment: Activity of Escherichia coli TOP10 beta-lactamase AmpC-B2

First: O=C(Cc1cccs1)N[C@@H]1C(=O)N2C(C(=O)[O-])=C(C[n+]3ccccc3)CS[C@H]12
Second: CC(=O)OCC1=C(C(=O)O)N2C(=O)[C@@H](NC(=O)Cc3cccs3)[C@H]2SC1 [CEPHALOTHIN]
The kcat of the first is 2.2-fold lower: 240 s⁻¹ for the first, 540 s⁻¹ for the second.

First: CO/N=C(\C(=O)N[C@@H]1C(=O)N2C(C(=O)O)=C(COC(C)=O)CS[C@H]12)c1csc(N)n1 [CEFOTAXIME]
Second: CC(C)(O/N=C(\C(=O)N[C@@H]1C(=O)N2C(C(=O)[O-])=C(C[n+]3ccccc3)CS[C@H]12)c1csc(N)n1)C(=O)O [CEFTAZIDIME]
The kcat of the first is 3-fold lower: 0.1 s⁻¹ for the first, 0.3 s⁻¹ for the second.

Going from `CO[C@@]1(NC(=O)Cc2cccs2)C(=O)N2C(C(=O)O)=C(COC(N)=O)CS[C@@H]21` [CEFOXITIN] to `C[C@@H](O)[C@H]1C(=O)N2C(C(=O)O)=C(SCCNC=N)C[C@H]12` [IMIPENEM ANHYDROUS], the kcat falls from 0.4 s⁻¹ to 0.09 s⁻¹ (4.4-fold).

Compared with `CO/N=C(\C(=O)N[C@@H]1C(=O)N2C(C(=O)O)=C(COC(C)=O)CS[C@H]12)c1csc(N)n1` [CEFOTAXIME], `CC(=O)OCC1=C(C(=O)O)N2C(=O)[C@@H](NC(=O)Cc3cccs3)[C@H]2SC1` [CEPHALOTHIN] is 1.9-fold higher in Km: 45 µM for the first, 85 µM for the second.

Going from `CO[C@@]1(NC(=O)Cc2cccs2)C(=O)N2C(C(=O)O)=C(COC(N)=O)CS[C@@H]21` [CEFOXITIN] to `C[C@@H](O)[C@H]1C(=O)N2C(C(=O)O)=C(SCCNC=N)C[C@H]12` [IMIPENEM ANHYDROUS], the Km rises from 1.5 µM to 32 µM (21-fold).

tested on: Escherichia coli; experiment: Antibacterial activity against Escherichia coli TOP10 by agar dilution method; type: functional

`CO/N=C(\C(=O)N[C@@H]1C(=O)N2C(C(=O)O)=C(COC(C)=O)CS[C@H]12)c1csc(N)n1` [CEFOTAXIME] and `CC(C)(O/N=C(\C(=O)N[C@@H]1C(=O)N2C(C(=O)[O-])=C(C[n+]3ccccc3)CS[C@H]12)c1csc(N)n1)C(=O)O` [CEFTAZIDIME] are the same in MIC: 0.06 µg/mL (≈ 0.132 µM) for the first, 0.06 µg/mL (≈ 0.11 µM) for the second.

`CO[C@@]1(NC(=O)Cc2cccs2)C(=O)N2C(C(=O)O)=C(COC(N)=O)CS[C@@H]21` [CEFOXITIN] and `CC(=O)OCC1=C(C(=O)O)N2C(=O)[C@@H](NC(=O)Cc3cccs3)[C@H]2SC1` [CEPHALOTHIN] are the same in MIC: 2 µg/mL (≈ 4.68 µM) for the first, 2 µg/mL (≈ 5.04 µM) for the second.

tested on: Escherichia coli; experiment: Activity of Escherichia coli TOP10 beta-lactamase AmpC-B2 S287N mutant

First: O=C(Cc1cccs1)N[C@@H]1C(=O)N2C(C(=O)[O-])=C(C[n+]3ccccc3)CS[C@H]12
Second: CC(=O)OCC1=C(C(=O)O)N2C(=O)[C@@H](NC(=O)Cc3cccs3)[C@H]2SC1 [CEPHALOTHIN]
The kcat of the first is 11-fold higher: 112 s⁻¹ for the first, 10 s⁻¹ for the second.

First: CO/N=C(\C(=O)N[C@@H]1C(=O)N2C(C(=O)O)=C(COC(C)=O)CS[C@H]12)c1csc(N)n1 [CEFOTAXIME]
Second: CC(C)(O/N=C(\C(=O)N[C@@H]1C(=O)N2C(C(=O)[O-])=C(C[n+]3ccccc3)CS[C@H]12)c1csc(N)n1)C(=O)O [CEFTAZIDIME]
The kcat of the first is 4.5-fold higher: 0.045 s⁻¹ for the first, 0.01 s⁻¹ for the second.

`CO[C@@]1(NC(=O)Cc2cccs2)C(=O)N2C(C(=O)O)=C(COC(N)=O)CS[C@@H]21` [CEFOXITIN] and `C[C@@H](O)[C@H]1C(=O)N2C(C(=O)O)=C(SCCNC=N)C[C@H]12` [IMIPENEM ANHYDROUS] are within 1.5-fold of each other in kcat: 0.08 s⁻¹ for the first, 0.06 s⁻¹ for the second.

`CO/N=C(\C(=O)N[C@@H]1C(=O)N2C(C(=O)O)=C(COC(C)=O)CS[C@H]12)c1csc(N)n1` [CEFOTAXIME] and `CC(C)(O/N=C(\C(=O)N[C@@H]1C(=O)N2C(C(=O)[O-])=C(C[n+]3ccccc3)CS[C@H]12)c1csc(N)n1)C(=O)O` [CEFTAZIDIME] are the same in Km: 1000 µM for the first, 1000 µM for the second.

Compared with `CO[C@@]1(NC(=O)Cc2cccs2)C(=O)N2C(C(=O)O)=C(COC(N)=O)CS[C@@H]21` [CEFOXITIN], `C[C@@H](O)[C@H]1C(=O)N2C(C(=O)O)=C(SCCNC=N)C[C@H]12` [IMIPENEM ANHYDROUS] is 2.5-fold higher in Km: 800 µM for the first, 2000 µM for the second.

tested on: Escherichia coli; experiment: Antibacterial activity against Escherichia coli TOP10 expressing AmpC-B2 S287N mutant protein by agar dilution method; type: functional

Going from `CO/N=C(\C(=O)N[C@@H]1C(=O)N2C(C(=O)O)=C(COC(C)=O)CS[C@H]12)c1csc(N)n1` [CEFOTAXIME] to `CC(C)(O/N=C(\C(=O)N[C@@H]1C(=O)N2C(C(=O)[O-])=C(C[n+]3ccccc3)CS[C@H]12)c1csc(N)n1)C(=O)O` [CEFTAZIDIME], the MIC rises from 1 µg/mL (≈ 2.2 µM) to 4 µg/mL (≈ 7.32 µM) (4-fold).

Compared with `CO[C@@]1(NC(=O)Cc2cccs2)C(=O)N2C(C(=O)O)=C(COC(N)=O)CS[C@@H]21` [CEFOXITIN], `C[C@@H](O)[C@H]1C(=O)N2C(C(=O)O)=C(SCCNC=N)C[C@H]12` [IMIPENEM ANHYDROUS] is 2100-fold lower in MIC: 128 µg/mL (≈ 299 µM) for the first, 0.06 µg/mL (≈ 0.2 µM) for the second.

tested on: Escherichia coli; experiment: Activity of Escherichia coli TOP10 beta-lactamase AmpC-A S287N mutant

`O=C(Cc1cccs1)N[C@@H]1C(=O)N2C(C(=O)[O-])=C(C[n+]3ccccc3)CS[C@H]12` and `CC(=O)OCC1=C(C(=O)O)N2C(=O)[C@@H](NC(=O)Cc3cccs3)[C@H]2SC1` [CEPHALOTHIN] are within 1.5-fold of each other in kcat: 50 s⁻¹ for the first, 65 s⁻¹ for the second.

Going from `CO/N=C(\C(=O)N[C@@H]1C(=O)N2C(C(=O)O)=C(COC(C)=O)CS[C@H]12)c1csc(N)n1` [CEFOTAXIME] to `CC(C)(O/N=C(\C(=O)N[C@@H]1C(=O)N2C(C(=O)[O-])=C(C[n+]3ccccc3)CS[C@H]12)c1csc(N)n1)C(=O)O` [CEFTAZIDIME], the kcat rises from 0.08 s⁻¹ to 0.2 s⁻¹ (2.5-fold).

First: CO[C@@]1(NC(=O)Cc2cccs2)C(=O)N2C(C(=O)O)=C(COC(N)=O)CS[C@@H]21 [CEFOXITIN]
Second: C[C@@H](O)[C@H]1C(=O)N2C(C(=O)O)=C(SCCNC=N)C[C@H]12 [IMIPENEM ANHYDROUS]
The kcat of the first is 1.7-fold higher: 0.1 s⁻¹ for the first, 0.06 s⁻¹ for the second.

Going from `CO/N=C(\C(=O)N[C@@H]1C(=O)N2C(C(=O)O)=C(COC(C)=O)CS[C@H]12)c1csc(N)n1` [CEFOTAXIME] to `CC(C)(O/N=C(\C(=O)N[C@@H]1C(=O)N2C(C(=O)[O-])=C(C[n+]3ccccc3)CS[C@H]12)c1csc(N)n1)C(=O)O` [CEFTAZIDIME], the Km rises from 100 µM to 400 µM (4-fold).

First: CO[C@@]1(NC(=O)Cc2cccs2)C(=O)N2C(C(=O)O)=C(COC(N)=O)CS[C@@H]21 [CEFOXITIN]
Second: CC(=O)OCC1=C(C(=O)O)N2C(=O)[C@@H](NC(=O)Cc3cccs3)[C@H]2SC1 [CEPHALOTHIN]
The Km of the first is 7.9-fold lower: 700 µM for the first, 5500 µM for the second.

`C[C@@H](O)[C@H]1C(=O)N2C(C(=O)O)=C(SCCNC=N)C[C@H]12` [IMIPENEM ANHYDROUS] was tested, and the Km was 200 µM.

tested on: Escherichia coli; experiment: Antibacterial activity against Escherichia coli TOP10 expressing AmpC-B2 by agar dilution method; type: functional

First: CO/N=C(\C(=O)N[C@@H]1C(=O)N2C(C(=O)O)=C(COC(C)=O)CS[C@H]12)c1csc(N)n1 [CEFOTAXIME]
Second: CC(C)(O/N=C(\C(=O)N[C@@H]1C(=O)N2C(C(=O)[O-])=C(C[n+]3ccccc3)CS[C@H]12)c1csc(N)n1)C(=O)O [CEFTAZIDIME]
The MIC of the first is 2-fold lower: 0.5 µg/mL (≈ 1.1 µM) for the first, 1 µg/mL (≈ 1.83 µM) for the second.

Going from `CO[C@@]1(NC(=O)Cc2cccs2)C(=O)N2C(C(=O)O)=C(COC(N)=O)CS[C@@H]21` [CEFOXITIN] to `CC(=O)OCC1=C(C(=O)O)N2C(=O)[C@@H](NC(=O)Cc3cccs3)[C@H]2SC1` [CEPHALOTHIN], the MIC rises from 128 µg/mL (≈ 299 µM) to > 512 µg/mL.

Compound `C[C@@H](O)[C@H]1C(=O)N2C(C(=O)O)=C(SCCNC=N)C[C@H]12` [IMIPENEM ANHYDROUS] has an MIC of 0.06 µg/mL (≈ 0.2 µM).

tested on: Escherichia coli; experiment: Activity of Escherichia coli TOP10 beta-lactamase AmpC-A

Compared with `O=C(Cc1cccs1)N[C@@H]1C(=O)N2C(C(=O)[O-])=C(C[n+]3ccccc3)CS[C@H]12`, `CC(=O)OCC1=C(C(=O)O)N2C(=O)[C@@H](NC(=O)Cc3cccs3)[C@H]2SC1` [CEPHALOTHIN] is 2.2-fold higher in kcat: 230 s⁻¹ for the first, 500 s⁻¹ for the second.

Compared with `CO/N=C(\C(=O)N[C@@H]1C(=O)N2C(C(=O)O)=C(COC(C)=O)CS[C@H]12)c1csc(N)n1` [CEFOTAXIME], `CC(C)(O/N=C(\C(=O)N[C@@H]1C(=O)N2C(C(=O)[O-])=C(C[n+]3ccccc3)CS[C@H]12)c1csc(N)n1)C(=O)O` [CEFTAZIDIME] is 2.5-fold higher in kcat: 0.2 s⁻¹ for the first, 0.5 s⁻¹ for the second.

In the case of `CO[C@@]1(NC(=O)Cc2cccs2)C(=O)N2C(C(=O)O)=C(COC(N)=O)CS[C@@H]21` [CEFOXITIN], the kcat was 0.3 s⁻¹.

Compared with `CO/N=C(\C(=O)N[C@@H]1C(=O)N2C(C(=O)O)=C(COC(C)=O)CS[C@H]12)c1csc(N)n1` [CEFOTAXIME], `CC(C)(O/N=C(\C(=O)N[C@@H]1C(=O)N2C(C(=O)[O-])=C(C[n+]3ccccc3)CS[C@H]12)c1csc(N)n1)C(=O)O` [CEFTAZIDIME] is 2.8-fold higher in Km: 25 µM for the first, 70 µM for the second.

Compared with `CO[C@@]1(NC(=O)Cc2cccs2)C(=O)N2C(C(=O)O)=C(COC(N)=O)CS[C@@H]21` [CEFOXITIN], `CC(=O)OCC1=C(C(=O)O)N2C(=O)[C@@H](NC(=O)Cc3cccs3)[C@H]2SC1` [CEPHALOTHIN] is 30-fold higher in Km: 1 µM for the first, 30 µM for the second.

tested on: Escherichia coli; experiment: Antibacterial activity against Escherichia coli TOP10 expressing AmpC-A by agar dilution method; type: functional

Going from `CO/N=C(\C(=O)N[C@@H]1C(=O)N2C(C(=O)O)=C(COC(C)=O)CS[C@H]12)c1csc(N)n1` [CEFOTAXIME] to `CC(C)(O/N=C(\C(=O)N[C@@H]1C(=O)N2C(C(=O)[O-])=C(C[n+]3ccccc3)CS[C@H]12)c1csc(N)n1)C(=O)O` [CEFTAZIDIME], the MIC rises from 1 µg/mL (≈ 2.2 µM) to 2 µg/mL (≈ 3.66 µM) (2-fold).

Compared with `CO[C@@]1(NC(=O)Cc2cccs2)C(=O)N2C(C(=O)O)=C(COC(N)=O)CS[C@@H]21` [CEFOXITIN], `CC(=O)OCC1=C(C(=O)O)N2C(=O)[C@@H](NC(=O)Cc3cccs3)[C@H]2SC1` [CEPHALOTHIN] is higher in MIC: 128 µg/mL (≈ 299 µM) for the first, > 512 µg/mL for the second.

With `C[C@@H](O)[C@H]1C(=O)N2C(C(=O)O)=C(SCCNC=N)C[C@H]12` [IMIPENEM ANHYDROUS] the MIC was 0.06 µg/mL (≈ 0.2 µM).
